# Data published in ChEMBL document CHEMBL4190370, “Emerging New Targets for the Treatment of Resistant Fungal Infections” (J Med Chem, 2018).
# Columns and labels:
# [1] = system: Candida albicans; assay: Antifungal activity against fluconazole-susceptable Candida albicans isolate 14 after 24 hrs by microdilution method; format: functional; details: isolate 14, 24 h
# [2] = system: Candida albicans; assay: Antifungal activity against fluconazole-resistant Candida albicans isolate 16 after 24 hrs by microdilution method; format: functional; details: isolate 16, 24 h
# [3] = system: Candida albicans; assay: Antifungal activity against fluconazole-susceptable Candida albicans isolate 11 after 24 hrs by microdilution method; format: functional; details: isolate 11, 24 h
# [4] = system: Candida albicans; assay: Antifungal activity against fluconazole-resistant Candida albicans isolate 17 after 24 hrs by microdilution method; format: functional; details: isolate 17, 24 h
# [5] = system: Candida albicans; assay: Antifungal activity against fluconazole-susceptable Candida albicans isolate 12 after 24 hrs by microdilution method; format: functional; details: isolate 12, 24 h
# [6] = system: Candida albicans; assay: Antifungal activity against fluconazole-susceptable Candida albicans isolate 15 after 24 hrs by microdilution method; format: functional; details: isolate 15, 24 h
# [7] = system: Candida albicans; assay: Antifungal activity against fluconazole-susceptable Candida albicans isolate 10 after 24 hrs by microdilution method; format: functional; details: isolate 10, 24 h
# [8] = system: Candida albicans; assay: Antifungal activity against fluconazole-susceptable Candida albicans isolate 1 after 24 hrs by microdilution method; format: functional; details: isolate 1, 24 h
# [9] = system: Candida albicans; assay: Antifungal activity against fluconazole-susceptable Candida albicans isolate 13 after 24 hrs by microdilution method; format: functional; details: isolate 13, 24 h
# [10] = system: Candida albicans; assay: Antifungal activity against fluconazole-susceptable Candida albicans isolate 5 after 24 hrs by microdilution method; format: functional; details: isolate 5, 24 h
# [11] = system: Candida albicans; assay: Antifungal activity against fluconazole-susceptable Candida albicans isolate 4 after 24 hrs by microdilution method; format: functional; details: isolate 4, 24 h
# [12] = system: Candida albicans; assay: Antifungal activity against fluconazole-susceptable Candida albicans isolate 9 after 24 hrs by microdilution method; format: functional; details: isolate 9, 24 h
# [13] = system: Candida albicans; assay: Antifungal activity against fluconazole-susceptable Candida albicans isolate 2 after 24 hrs by microdilution method; format: functional; details: isolate 2, 24 h
# [14] = system: Candida albicans; assay: Antifungal activity against fluconazole-susceptable Candida albicans isolate 8 after 24 hrs by microdilution method; format: functional; details: isolate 8, 24 h
# [15] = system: Candida albicans; assay: Antifungal activity against fluconazole-susceptable Candida albicans isolate 7 after 24 hrs by microdilution method; format: functional; details: isolate 7, 24 h
# [16] = system: Candida albicans; assay: Antifungal activity against fluconazole-susceptable Candida albicans isolate 6 after 24 hrs by microdilution method; format: functional; details: isolate 6, 24 h
# [17] = system: Candida albicans; assay: Antifungal activity against fluconazole-susceptable Candida albicans isolate 3 after 24 hrs by microdilution method; format: functional; details: isolate 3, 24 h
# [18] = system: HepG2; assay: Cytotoxicity in human HepG2 cells; format: cell-based
# [19] = biological target: T1, Mediator of RNA polymerase II transcription subunit 15 (Candida glabrata (strain ATCC 2001 / CBS 138 / JCM 3761 / NBRC 0622 /NRRL Y-65) (Yeast) (Torulopsis glabrata), UniProt Q6FRS9); assay: Binding affinity to Candida glabrata Gal11A KIX domain; design: species or system Nakaseomyces glabratus
# T1 sequence (Q6FRS9 whole entry): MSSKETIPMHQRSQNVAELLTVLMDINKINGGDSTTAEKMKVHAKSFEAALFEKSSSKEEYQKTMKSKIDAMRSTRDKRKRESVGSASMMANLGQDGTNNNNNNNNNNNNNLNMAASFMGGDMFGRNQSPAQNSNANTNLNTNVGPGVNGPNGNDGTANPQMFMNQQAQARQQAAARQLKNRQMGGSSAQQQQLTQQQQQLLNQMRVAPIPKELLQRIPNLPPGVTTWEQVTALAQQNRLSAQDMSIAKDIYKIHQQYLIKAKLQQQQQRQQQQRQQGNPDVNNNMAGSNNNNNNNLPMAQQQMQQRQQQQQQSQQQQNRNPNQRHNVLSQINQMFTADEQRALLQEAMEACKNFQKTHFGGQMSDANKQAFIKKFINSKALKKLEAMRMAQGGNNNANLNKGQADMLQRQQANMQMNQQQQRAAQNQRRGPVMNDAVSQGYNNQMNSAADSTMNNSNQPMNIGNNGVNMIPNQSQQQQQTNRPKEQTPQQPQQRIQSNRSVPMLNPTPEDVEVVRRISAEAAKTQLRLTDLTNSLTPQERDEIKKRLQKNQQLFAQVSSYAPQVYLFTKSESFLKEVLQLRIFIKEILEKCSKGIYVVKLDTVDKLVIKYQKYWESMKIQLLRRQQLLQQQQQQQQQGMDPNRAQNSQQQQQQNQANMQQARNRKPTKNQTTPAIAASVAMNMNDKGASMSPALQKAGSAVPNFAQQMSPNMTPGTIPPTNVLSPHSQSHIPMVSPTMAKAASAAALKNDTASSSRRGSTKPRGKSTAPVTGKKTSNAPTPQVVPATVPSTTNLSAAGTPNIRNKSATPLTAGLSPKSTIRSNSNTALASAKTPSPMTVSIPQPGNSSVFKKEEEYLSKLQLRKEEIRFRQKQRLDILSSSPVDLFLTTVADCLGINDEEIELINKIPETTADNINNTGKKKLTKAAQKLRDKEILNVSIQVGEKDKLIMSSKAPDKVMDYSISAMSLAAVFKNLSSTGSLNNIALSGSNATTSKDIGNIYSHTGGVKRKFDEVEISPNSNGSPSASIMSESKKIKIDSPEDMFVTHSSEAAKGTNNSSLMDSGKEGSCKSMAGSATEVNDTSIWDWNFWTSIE
# [20] = system: Candida albicans; assay: Antifungal activity against fluconazole-resistant Candida albicans clinical isolate 3034 planktonic cells after 48 hrs by broth microdilution assay; format: functional; details: isolate 3034, 48 h
# [21] = system: Candida albicans; assay: Antifungal activity against fluconazole-resistant Candida albicans clinical isolate 2440 planktonic cells after 48 hrs by broth microdilution assay; format: functional; details: isolate 2440, 48 h
# [22] = system: Candida albicans; assay: Antifungal activity against fluconazole-resistant Candida albicans clinical isolate 5106 planktonic cells after 48 hrs by broth microdilution assay; format: functional; details: isolate 5106, 48 h
# [23] = system: Candida albicans; assay: Antifungal activity against fluconazole-resistant Candida albicans clinical isolate 4639 planktonic cells after 48 hrs by broth microdilution assay; format: functional; details: isolate 4639, 48 h
# [24] = system: Candida albicans; assay: Antifungal activity against fluconazole-resistant Candida albicans clinical isolate 4380 planktonic cells after 48 hrs by broth microdilution assay; format: functional; details: isolate 4380, 48 h
# [25] = system: Candida albicans; assay: Antifungal activity against fluconazole-resistant Candida albicans clinical isolate 4617 planktonic cells after 48 hrs by broth microdilution assay; format: functional; details: isolate 4617, 48 h
# [26] = system: Candida albicans; assay: Antifungal activity against fluconazole-resistant Candida albicans clinical isolate 6482 planktonic cells after 48 hrs by broth microdilution assay; format: functional; details: isolate 6482, 48 h
# [27] = system: Candida albicans; assay: Antifungal activity against fluconazole-resistant Candida albicans clinical isolate 1691 planktonic cells after 48 hrs by broth microdilution assay; format: functional; details: isolate 1691, 48 h
# [28] = system: Candida albicans; assay: Antifungal activity against fluconazole-resistant Candida albicans clinical isolate 3731 planktonic cells after 48 hrs by broth microdilution assay; format: functional; details: isolate 3731, 48 h
# [29] = system: Candida albicans; assay: Antifungal activity against fluconazole-resistant Candida albicans SC5314 planktonic cells after 48 hrs by broth microdilution assay; format: functional; details: SC5314, 48 h
# [30] = system: Candida albicans; assay: Antifungal activity against fluconazole-resistant Candida albicans clinical isolate 2307 planktonic cells after 48 hrs by broth microdilution assay; format: functional; details: isolate 2307, 48 h
# [31] = system: Candida albicans; assay: Antibiofilm activity against Candida albicans SC5314 assessed as inhibition of mature biofilm formation at 8 to 32 ug/ml after 24 hrs by XTT reduction assay; format: functional
# [32] = system: Candida albicans; assay: Antifungal activity against fluconazole-resistant Candida albicans clinical isolate 412 planktonic cells after 48 hrs by broth microdilution assay; format: functional; details: isolate 412, 48 h
# [33] = system: Candida albicans; assay: Antifungal activity against fluconazole-resistant Candida albicans clinical isolate 6191 planktonic cells after 48 hrs by broth microdilution assay; format: functional; details: isolate 6191, 48 h
# [34] = system: Candida albicans; assay: Antibiofilm activity against Candida albicans SC5314 assessed as inhibition of biofilm formation at 2 to 4 ug/ml after 24 hrs by XTT reduction assay; format: functional
# [35] = system: Cryptococcus neoformans; assay: Antifungal activity against Cryptococcus neoformans after 24 hrs; format: functional
# [36] = system: Saccharomyces cerevisiae; assay: Inhibition of Saccharomyces cerevisiae AHAS
# [37] = system: Candida albicans; assay: Antifungal activity against Candida albicans after 24 hrs; format: functional
# [38] = system: Aspergillus fumigatus; assay: Antifungal activity against Aspergillus fumigatus after 24 hrs; format: functional
# [39] = system: Candida albicans; assay: Antifungal activity against Candida albicans; format: functional
# [40] = system: Aspergillus fumigatus; assay: Antifungal activity against Aspergillus fumigatus; format: functional
# [41] = system: Cryptococcus neoformans; assay: Antifungal activity against Cryptococcus neoformans; format: functional
# [42] = system: Candida albicans; assay: Antifungal activity against Candida albicans infected in rat model of systemic candidiasis; format: functional, organism-based
# [43] = system: Candida; assay: Antifungal activity against Candida; format: functional
# [44] = system: Candida; assay: Antifungal activity against Candida sp.; format: functional
# [45] = Inhibition of Saccharomyces cerevisiae LeuRs
# [46] = system: Aspergillus fumigatus; assay: Antifungal activity against Aspergillus fumigatus IFM 40808 after 48 hrs by broth-microdilution method; format: functional; details: IFM 40808, 48 h
# [47] = Inhibition of Aspergillus fumigatus KU80UpyrG- NMT using [3H]-MCoA and CAP5.5 as substrate after 20 mins by SPA assay
smiles,measurement,setting,value
COc1ccc2cc1Oc1ccc(cc1)C[C@@H]1c3cc(c(OC)cc3CCN1C)Oc1c(OC)c(OC)cc3c1[C@H](C2)N(C)CC3 [ISOTETRANDRINE],MIC80,[1],64 µg/mL
same,MIC80,[2],64 µg/mL
same,MIC80,[3],64 µg/mL
same,MIC80,[4],64 µg/mL
same,MIC80,[5],64 µg/mL
same,MIC80,[6],64 µg/mL
same,MIC80,[7],64 µg/mL
same,MIC80,[8],64 µg/mL
same,MIC80,[9],64 µg/mL
same,MIC80,[10],64 µg/mL
same,MIC80,[11],64 µg/mL
same,MIC80,[12],64 µg/mL
same,MIC80,[13],64 µg/mL
same,MIC80,[14],64 µg/mL
same,MIC80,[15],64 µg/mL
same,MIC80,[16],64 µg/mL
same,MIC80,[17],64 µg/mL
N#CCC(=O)NNC(=S)Nc1ccc(Cl)c(Cl)c1,IC50,[18],100000 nM
same,Kd,[19],320 nM
CCCCCCCCCCCCCCCCOP(=O)([O-])OCC[N+](C)(C)C [MILTEFOSINE],MIC,[20],0.5 to 2 µg/mL
same,MIC,[21],0.5 to 2 µg/mL
same,MIC,[22],0.5 to 2 µg/mL
same,MIC,[23],0.5 to 2 µg/mL
same,MIC,[24],0.5 to 2 µg/mL
same,MIC,[25],0.5 to 2 µg/mL
same,MIC,[26],0.5 to 2 µg/mL
same,MIC,[27],0.5 to 2 µg/mL
same,MIC,[28],0.5 to 2 µg/mL
same,MIC,[29],0.5 to 2 µg/mL
same,MIC,[30],0.5 to 2 µg/mL
same,inhibition (INH),[31],>90%
same,MIC,[32],0.5 to 2 µg/mL
same,MIC,[33],0.5 to 2 µg/mL
same,inhibition (INH),[34],90%
CCc1cccc(C)c1NS(=O)(=O)c1nc2nc(C)cc(C3CC3)n2n1,MIC50,[35],4 µg/mL
same,IC30,[36],4200 nM
same,MIC50,[37],1 µg/mL
same,MIC50,[38],4 µg/mL
Cc1c(COc2ccc(F)c(F)c2F)oc2cccc(OCCCNCc3cccnc3)c12,MIC,[39],0.05 µg/mL
same,MIC,[40],25 µg/mL
same,MIC90,[41],3.13 µg/mL
same,EC50,[42],7.1 mg/kg
CN(C)c1ccc(/C=C/c2cc(C(C)(C)C)[o+]c(C(C)(C)C)c2)cc1.[O-][Cl+3]([O-])([O-])[O-],MIC,[43],0.2 to 6.25 µg/mL
same,MIC,[44],0.5 to 1 µg/mL
OB1OCc2cc(F)ccc21 [TAVABOROLE],IC50,[45],2100 nM
Cc1c(NS(=O)(=O)c2c(Cl)cc(-c3ccnc(N4CCNCC4)c3)cc2Cl)c(CC(C)C)nn1C [ZELENIRSTAT],MIC,[46],925 µM
same,IC50,[47],12 nM
